From ChEMBL document CHEMBL1141548, “Synthesis of a small library of 2-phenoxy-1,4-naphthoquinone and 2-phenoxy-1,4-anthraquinone derivatives bearing anti-trypanosomal and anti-leishmanial activity” (Bioorg Med Chem Lett, 2008)

Legend:
Leishmania donovani = experiment: Antileishmanial activity against Leishmania donovani MHOM-ET-67/L82 amastigotes by microplate assay; format: functional, organism-based
Trypanosoma cruzi = experiment: Antitrypanosomal activity against Trypanosoma cruzi Tulahuen C4 amastigotes by microplate assay; format: functional, organism-based
[1] = Selectivity index, ratio of IC50 for rat L6 cells to IC50 for Trypanosoma cruzi Tulahuen C4; format: functional, cell-based
L6 = experiment: Cytotoxicity against rat L6 cells; format: cell-based
[2] = Selectivity index, ratio of IC50 for rat L6 cells to IC50 for Leishmania donovani MHOM-ET-67/L82; format: functional, cell-based
[3] = Selectivity index, ratio of IC50 for rat L6 cells to IC50 for Trypanosoma brucei rhodesiense STIB900; format: functional, cell-based
[4] = system: Trypanosoma brucei rhodesiense; experiment: Antitrypanosomal activity against Trypanosoma brucei rhodesiense STIB900 trypomastigotes by microplate assay; format: functional, organism-based

SMILES | IC50 (Leishmania donovani) [nM] | IC50 (Trypanosoma cruzi) [nM] | selectivity index [1] | IC50 (L6) [nM] | selectivity index [2] | selectivity index [3] | IC50 [4] [nM]
O=C1C=C(Oc2ccc(Br)cc2Br)C(=O)c2ccccc21 | 2370 | 34300 | 0.83 | 28500 | 12.1 | 55.7 | 510
O=C1C=C(Oc2ccc(F)cc2F)C(=O)c2ccccc21 | 2290 | 5000 | 1.1 | 5510 | 2.41 | 14.2 | 390
O=C1C=C(Oc2ccc(Cl)cc2Cl)C(=O)c2cc3ccccc3cc21 | 490 | 13700 | 0.15 | 2010 | 4.15 | 31 | 65
O=C1C=C(Oc2ccc(Cl)cc2F)C(=O)c2cc3ccccc3cc21 | 530 | 21500 | 0.12 | 2640 | 5.01 | 12.4 | 210
Cc1ccc(OC2=CC(=O)c3cc4ccccc4cc3C2=O)c(C)c1 | 550 | 22500 | 0.18 | 4130 | 7.53 | 13.2 | 310
O=C1C=C(Oc2ccc(F)cc2Br)C(=O)c2cc3ccccc3cc21 | 350 | 2870 | 0.39 | 1130 | 3.24 | 14.1 | 80
Cc1ccc(OC2=CC(=O)c3cc4ccccc4cc3C2=O)cc1Br | 360 | 6360 | 0.4 | 2560 | 7.1 | 17.4 | 150
O=C1C=C(Oc2ccccc2)C(=O)c2cc3ccccc3cc21 | 340 | 4660 | 0.21 | 1000 | 2.94 | 20 | 50
O=C1C=C(Oc2ccc(F)cc2F)C(=O)c2cc3ccccc3cc21 | 280 | 7140 | 0.28 | 1980 | 7.01 | 8.43 | 240
O=C1C=C(Oc2ccc(Cl)cc2Cl)C(=O)c2ccccc21 | 1320 | 5950 | 0.87 | 5180 | 3.94 | 17.8 | 290
O=C1C=C(Oc2ccc(Cl)cc2F)C(=O)c2ccccc21 | 700 | 4430 | 1.03 | 4580 | 6.54 | 12.5 | 370
Cc1ccc(OC2=CC(=O)c3ccccc3C2=O)c(C)c1 | 510 | 2470 | 2.13 | 5260 | 10.3 | 24.4 | 220
O=C1C=C(Oc2ccc(F)cc2Br)C(=O)c2ccccc21 | 1810 | 3740 | 1.25 | 4660 | 2.58 | 13.1 | 360
Cc1ccc(OC2=CC(=O)c3ccccc3C2=O)cc1Br | 920 | 2880 | 1.71 | 4920 | 5.34 | 16.4 | 300
O=C1C=C(Oc2ccccc2)C(=O)c2ccccc21 | 1260 | 1260 | 4.7 | 5920 | 4.69 | 74 | 80
O=C1C=C(Oc2ccc(Br)cc2Br)C(=O)c2cc3ccccc3cc21 | 470 | 16400 | 0.13 | 2190 | 4.71 | 15.4 | 140
CCCCCCCCCCCCCCCCOP(=O)([O-])OCC[N+](C)(C)C [MILTEFOSINE] | 310 | – | – | – | – | – | –
